# Test results published in ChEMBL document CHEMBL1687765, “NagZ inactivation prevents and reverts beta-lactam resistance, driven by AmpD and PBP 4 mutations, in Pseudomonas aeruginosa” (2010).
# Experiments:
# Type in all cases: functional
# Pseudomonas aeruginosa [1] = assay: Induction of creD mRNA in dacB::lox and nagZ::lox gene-deficient Pseudomonas aeruginosa PAO1 at 50 ug/ml by RT-PCR relative to wild type Pseudomonas aeruginosa PAO1 (reference value: 4 +/- 0.8 no unit)
# Pseudomonas aeruginosa [2] = assay: Induction of ampC mRNA in ampR::lox gene-deficient Pseudomonas aeruginosa PAO1 at 50 ug/ml by RT-PCR relative to wild type Pseudomonas aeruginosa PAO1 (reference value: 3.8 +/- 0.4 no unit)
# Pseudomonas aeruginosa [3] = assay: Induction of ampC mRNA in ampD::lox gene-deficient Pseudomonas aeruginosa PAO1 at 50 ug/ml by RT-PCR relative to wild type Pseudomonas aeruginosa PAO1 (reference value: 1770 +/- 414 no unit) harboring dacB gene
# Pseudomonas aeruginosa [4] = assay: Induction of ampC mRNA in ampD::lox and nagZ::lox gene-deficient Pseudomonas aeruginosa PAO1 at 50 ug/ml by RT-PCR relative to wild type Pseudomonas aeruginosa PAO1 (reference value: 40 +/- 17 no unit) harboring dacB gene
# Pseudomonas aeruginosa [5] = assay: Induction of ampC mRNA in ampD::lox, ampDh2::lox and ampDh3::lox gene-deficient Pseudomonas aeruginosa PAO1 at 50 ug/ml by RT-PCR relative to wild type Pseudomonas aeruginosa PAO1 (reference value: 1020 +/- 88 no unit)
# Pseudomonas aeruginosa [6] = assay: Induction of ampC mRNA in ampD::lox and nagZ::lox gene-deficient Pseudomonas aeruginosa PAO1 at 50 ug/ml by RT-PCR relative to wild type Pseudomonas aeruginosa PAO1 (reference value: 1 +/- 0.4 no unit)
# Pseudomonas aeruginosa [7] = assay: Induction of creD mRNA in ampD::lox and nagZ::lox gene-deficient Pseudomonas aeruginosa PAO1 at 50 ug/ml by RT-PCR relative to wild type Pseudomonas aeruginosa PAO1 (reference value: 1.9 +/- 1.3 no unit) harboring dacB gene
# Pseudomonas aeruginosa [8] = assay: Induction of creD mRNA in ampD::lox and nagZ::lox gene-deficient Pseudomonas aeruginosa PAO1 at 50 ug/ml by RT-PCR relative to wild type Pseudomonas aeruginosa PAO1 (reference value: 2.8 +/- 1.6 no unit)
# Pseudomonas aeruginosa [9] = assay: Induction of creD mRNA in ampD::lox, ampDh2::lox and ampDh3::lox gene-deficient Pseudomonas aeruginosa PAO1 at 50 ug/ml by RT-PCR relative to wild type Pseudomonas aeruginosa PAO1 (reference value: 1.3 +/- 0.3 no unit)
# Pseudomonas aeruginosa [10] = assay: Induction of creD mRNA in ampD::lox gene-deficient Pseudomonas aeruginosa PAO1 at 50 ug/ml by RT-PCR relative to wild type Pseudomonas aeruginosa PAO1 (reference value: 1.1 +/- 0.3 no unit)
# Pseudomonas aeruginosa [11] = assay: Induction of ampC mRNA in nagZ::lox gene-deficient Pseudomonas aeruginosa PAO1 at 50 ug/ml by RT-PCR relative to wild type Pseudomonas aeruginosa PAO1 (reference value: -2.1 +/- 1.5 no unit)
# Pseudomonas aeruginosa [12] = assay: Induction of creD mRNA in nagZ::lox gene-deficient Pseudomonas aeruginosa PAO1 at 50 ug/ml by RT-PCR relative to wild type Pseudomonas aeruginosa PAO1 (reference value: 1.1 +/- 0.3 no unit)
# Pseudomonas aeruginosa [13] = assay: Induction of creD mRNA in ampD::lox, ampDh2::lox,ampDh3::lox and nagZ::lox gene-deficient Pseudomonas aeruginosa PAO1 at 50 ug/ml by RT-PCR relative to wild type Pseudomonas aeruginosa PAO1 (reference value: -1.4 +/- 0.1 no unit)
# Pseudomonas aeruginosa [14] = assay: Induction of creD mRNA in Pseudomonas aeruginosa PAO1 at 50 ug/ml by RT-PCR relative to wild type Pseudomonas aeruginosa PAO1 (reference value: 1 no unit)
# Pseudomonas aeruginosa [15] = assay: Induction of ampC mRNA in dacB::lox and nagZ::lox gene-deficient Pseudomonas aeruginosa PAO1 at 50 ug/ml by RT-PCR relative to wild type Pseudomonas aeruginosa PAO1 (reference value: 3 +/- 1.9 no unit)
# Pseudomonas aeruginosa [16] = assay: Induction of creD mRNA in ampD::lox gene-deficient Pseudomonas aeruginosa PAO1 at 50 ug/ml by RT-PCR relative to wild type Pseudomonas aeruginosa PAO1 (reference value: 51 +/- 24 no unit) harboring dacB gene
# Pseudomonas aeruginosa [17] = assay: Induction of ampC mRNA in Pseudomonas aeruginosa PAO1 at 50 ug/ml by RT-PCR relative to wild type Pseudomonas aeruginosa PAO1 (reference value: 1 no unit)
# Pseudomonas aeruginosa [18] = assay: Induction of ampC mRNA in dacB::lox gene-deficient Pseudomonas aeruginosa PAO1 at 50 ug/ml by RT-PCR relative to wild type Pseudomonas aeruginosa PAO1 (reference value: 51 +/- 16 no unit)
# Pseudomonas aeruginosa [19] = assay: Induction of creD mRNA in ampR::lox gene-deficient Pseudomonas aeruginosa PAO1 at 50 ug/ml by RT-PCR relative to wild type Pseudomonas aeruginosa PAO1 (reference value: 1.6 +/- 0.1 no unit)
# Pseudomonas aeruginosa [20] = assay: Induction of ampC mRNA in ampD::lox, ampDh2::lox,ampDh3::lox and nagZ::lox gene-deficient Pseudomonas aeruginosa PAO1 at 50 ug/ml by RT-PCR relative to wild type Pseudomonas aeruginosa PAO1 (reference value: 57 +/- 31 no unit)
# Pseudomonas aeruginosa [21] = assay: Induction of ampC mRNA in ampD::lox gene-deficient Pseudomonas aeruginosa PAO1 at 50 ug/ml by RT-PCR relative to wild type Pseudomonas aeruginosa PAO1 (reference value: 47 +/-9.5 no unit)
# Pseudomonas aeruginosa [22] = assay: Induction of creD mRNA in dacB::lox gene-deficient Pseudomonas aeruginosa PAO1 at 50 ug/ml by RT-PCR relative to wild type Pseudomonas aeruginosa PAO1 (reference value: 83 +/- 7 no unit)
smiles,measurement,setting,value
CO[C@@]1(NC(=O)Cc2cccs2)C(=O)N2C(C(=O)O)=C(COC(N)=O)CS[C@@H]21 [CEFOXITIN],fold change (FC),Pseudomonas aeruginosa [1],95
same,fold change (FC),Pseudomonas aeruginosa [2],3.3
same,fold change (FC),Pseudomonas aeruginosa [3],1950
same,fold change (FC),Pseudomonas aeruginosa [4],906
same,fold change (FC),Pseudomonas aeruginosa [5],1105
same,fold change (FC),Pseudomonas aeruginosa [6],483
same,fold change (FC),Pseudomonas aeruginosa [7],418
same,fold change (FC),Pseudomonas aeruginosa [8],99
same,fold change (FC),Pseudomonas aeruginosa [9],1.6
same,fold change (FC),Pseudomonas aeruginosa [10],2.7
same,fold change (FC),Pseudomonas aeruginosa [11],469
same,fold change (FC),Pseudomonas aeruginosa [12],54
same,fold change (FC),Pseudomonas aeruginosa [13],1
same,fold change (FC),Pseudomonas aeruginosa [14],24
same,fold change (FC),Pseudomonas aeruginosa [15],661
same,fold change (FC),Pseudomonas aeruginosa [16],81
same,fold change (FC),Pseudomonas aeruginosa [17],78
same,fold change (FC),Pseudomonas aeruginosa [18],232
same,fold change (FC),Pseudomonas aeruginosa [19],189
same,fold change (FC),Pseudomonas aeruginosa [20],905
same,fold change (FC),Pseudomonas aeruginosa [21],134
same,fold change (FC),Pseudomonas aeruginosa [22],120
